Experimental data: ChEMBL document CHEMBL4507269, “Data for DCP probe BAY-386” (2021)

Assays:
[1] = biological target: Inhibitor of nuclear factor kappa-B kinase subunit alpha (Homo sapiens) (UniProt O15111); conditions: Compound concentration 1000.0 nM
[2] = biological target: Serine/threonine-protein kinase 25 (Homo sapiens) (UniProt O00506); conditions: Compound concentration 1000.0 nM
[3] = biological target: Cyclin-dependent kinase 17 (Homo sapiens) (UniProt Q00537); conditions: Compound concentration 1000.0 nM
[4] = biological target: Cyclin-dependent kinase 15 (Homo sapiens) (UniProt Q96Q40); conditions: Compound concentration 1000.0 nM
[5] = biological target: Tyrosine-protein kinase Mer (Homo sapiens) (UniProt Q12866); conditions: Compound concentration 1000.0 nM
[6] = biological target: Mitogen-activated protein kinase kinase kinase 3 (Homo sapiens) (UniProt Q99759); conditions: Compound concentration 1000.0 nM
[7] = test system: Proto-oncogene tyrosine-protein kinase receptor Ret (Homo sapiens), P07949 [M918T]; conditions: Compound concentration 1000.0 nM
[8] = biological target: Serine/threonine-protein kinase MRCK gamma (Homo sapiens) (UniProt Q6DT37); conditions: Compound concentration 1000.0 nM
[9] = biological target: Tyrosine-protein kinase receptor Tie-1 (Homo sapiens) (UniProt P35590); conditions: Compound concentration 1000.0 nM
[10] = biological target: Cyclin-dependent kinase 5 (Homo sapiens) (UniProt Q00535); conditions: Compound concentration 1000.0 nM
[11] = test system: Tyrosine-protein kinase ABL1 (Homo sapiens), P00519 [Q252H]; conditions: Compound concentration 1000.0 nM
[12] = biological target: Phosphatidylinositol 4-phosphate 5-kinase type-1 gamma (Homo sapiens) (UniProt O60331); conditions: Compound concentration 1000.0 nM
[13] = biological target: Serine/threonine-protein kinase Chk1 (Homo sapiens) (UniProt O14757); conditions: Compound concentration 1000.0 nM
[14] = biological target: 1-phosphatidylinositol 3-phosphate 5-kinase (Homo sapiens) (UniProt Q9Y2I7); conditions: Compound concentration 1000.0 nM
[15] = test system: Mast/stem cell growth factor receptor Kit (Homo sapiens), P10721 [D816H]; conditions: Compound concentration 1000.0 nM
[16] = biological target: Platelet-derived growth factor receptor beta (Homo sapiens) (UniProt P09619); conditions: Compound concentration 1000.0 nM
[17] = biological target: RAC-beta serine/threonine-protein kinase (Homo sapiens) (UniProt P31751); conditions: Compound concentration 1000.0 nM
[18] = biological target: Mitogen-activated protein kinase 11 (Homo sapiens) (UniProt Q15759); conditions: Compound concentration 1000.0 nM
[19] = biological target: T1, Muscarinic acetylcholine receptor M1 (Homo sapiens) (UniProt P11229); assay: M1 (h) Eurofins-Cerep Cellular and Nuclear Receptor Functional Assays; conditions: Compound concentration 10.0 uM
T1 sequence (whole entry): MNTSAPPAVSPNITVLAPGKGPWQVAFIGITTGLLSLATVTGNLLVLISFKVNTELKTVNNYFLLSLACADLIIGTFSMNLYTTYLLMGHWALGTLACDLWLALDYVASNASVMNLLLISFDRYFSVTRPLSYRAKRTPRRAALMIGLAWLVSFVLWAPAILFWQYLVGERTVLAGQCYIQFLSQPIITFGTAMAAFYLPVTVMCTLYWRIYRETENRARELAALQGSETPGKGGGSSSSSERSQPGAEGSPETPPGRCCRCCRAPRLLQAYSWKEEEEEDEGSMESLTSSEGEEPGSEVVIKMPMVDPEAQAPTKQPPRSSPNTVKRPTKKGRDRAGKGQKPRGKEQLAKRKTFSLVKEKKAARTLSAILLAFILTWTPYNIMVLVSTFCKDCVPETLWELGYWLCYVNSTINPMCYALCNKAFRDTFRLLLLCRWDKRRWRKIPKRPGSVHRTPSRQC

[20] = biological target: Mitogen-activated protein kinase kinase kinase 14 (Homo sapiens) (UniProt Q99558); conditions: Compound concentration 1000.0 nM
[21] = biological target: T2, Adenosine receptor A3 (Homo sapiens) (UniProt P0DMS8); assay: A3 (h) Eurofins-Cerep Cellular and Nuclear Receptor Functional Assays; conditions: Compound concentration 10.0 uM
T2 sequence (whole entry): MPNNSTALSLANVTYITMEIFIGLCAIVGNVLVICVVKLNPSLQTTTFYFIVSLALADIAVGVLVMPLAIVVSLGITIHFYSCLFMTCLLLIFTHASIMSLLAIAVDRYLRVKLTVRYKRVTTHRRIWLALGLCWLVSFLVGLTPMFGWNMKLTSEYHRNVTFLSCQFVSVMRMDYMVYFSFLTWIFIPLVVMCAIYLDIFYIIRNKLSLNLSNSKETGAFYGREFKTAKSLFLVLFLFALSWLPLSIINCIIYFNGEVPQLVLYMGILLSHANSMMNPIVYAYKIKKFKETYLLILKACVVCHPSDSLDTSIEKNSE

[22] = test system: ALK tyrosine kinase receptor (Homo sapiens), Q9UM73 [C1156Y]; conditions: Compound concentration 1000.0 nM
[23] = biological target: Platelet-derived growth factor receptor alpha (Homo sapiens) (UniProt P16234); conditions: Compound concentration 1000.0 nM
[24] = biological target: Serine/threonine-protein kinase PRP4 homolog (Homo sapiens) (UniProt Q13523); conditions: Compound concentration 1000.0 nM
[25] = biological target: Sodium-dependent dopamine transporter (Homo sapiens) (UniProt Q01959); conditions: Compound concentration 10.0 uM
[26] = biological target: Phosphatidylinositol 4-kinase beta (Homo sapiens) (UniProt Q9UBF8); conditions: Compound concentration 1000.0 nM
[27] = biological target: Maternal embryonic leucine zipper kinase (Homo sapiens) (UniProt Q14680); conditions: Compound concentration 1000.0 nM
[28] = biological target: Mitogen-activated protein kinase 6 (Homo sapiens) (UniProt Q16659); conditions: Compound concentration 1000.0 nM
[29] = test system: Receptor-type tyrosine-protein kinase FLT3 (Homo sapiens), P36888 [N841I]; conditions: Compound concentration 1000.0 nM
[30] = test system: Tyrosine-protein kinase ABL1 (Homo sapiens), P00519 [Y253F]; conditions: Compound concentration 1000.0 nM
[31] = test system: Tyrosine-protein kinase ABL1 (Homo sapiens), P00519 [F317L]; conditions: Compound concentration 1000.0 nM
[32] = biological target: Tyrosine-protein kinase ABL2 (Homo sapiens) (UniProt P42684); conditions: Compound concentration 1000.0 nM

Mast/stem cell growth factor receptor Kit (Homo sapiens), P10721 [D816H], sequence (P10721 whole entry D816H): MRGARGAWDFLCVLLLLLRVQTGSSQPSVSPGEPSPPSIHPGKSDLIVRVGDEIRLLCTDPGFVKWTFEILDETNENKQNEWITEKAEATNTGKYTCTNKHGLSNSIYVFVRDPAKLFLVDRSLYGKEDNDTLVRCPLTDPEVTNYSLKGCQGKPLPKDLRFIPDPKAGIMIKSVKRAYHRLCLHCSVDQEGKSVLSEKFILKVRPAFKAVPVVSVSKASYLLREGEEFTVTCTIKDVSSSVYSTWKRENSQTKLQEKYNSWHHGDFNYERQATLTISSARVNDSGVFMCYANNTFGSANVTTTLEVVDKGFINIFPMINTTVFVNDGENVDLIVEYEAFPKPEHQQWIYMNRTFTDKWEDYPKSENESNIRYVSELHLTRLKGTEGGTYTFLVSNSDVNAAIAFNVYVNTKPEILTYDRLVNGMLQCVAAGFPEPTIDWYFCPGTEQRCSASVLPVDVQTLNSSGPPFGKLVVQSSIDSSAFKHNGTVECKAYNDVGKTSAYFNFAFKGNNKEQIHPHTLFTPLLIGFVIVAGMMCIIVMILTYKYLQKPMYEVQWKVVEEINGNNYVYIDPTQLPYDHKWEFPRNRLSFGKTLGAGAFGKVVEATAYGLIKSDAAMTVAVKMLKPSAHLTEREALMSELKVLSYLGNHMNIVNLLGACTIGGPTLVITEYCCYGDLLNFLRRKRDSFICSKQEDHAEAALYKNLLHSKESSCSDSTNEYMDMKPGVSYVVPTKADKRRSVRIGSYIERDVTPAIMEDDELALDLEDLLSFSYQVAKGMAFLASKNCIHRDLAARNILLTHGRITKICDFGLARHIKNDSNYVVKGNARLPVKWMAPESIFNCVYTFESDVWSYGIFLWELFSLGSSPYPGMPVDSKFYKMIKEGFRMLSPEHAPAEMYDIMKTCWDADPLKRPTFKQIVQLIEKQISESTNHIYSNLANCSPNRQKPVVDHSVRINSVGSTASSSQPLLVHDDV
Tyrosine-protein kinase Mer (Homo sapiens), sequence (Q12866 whole entry): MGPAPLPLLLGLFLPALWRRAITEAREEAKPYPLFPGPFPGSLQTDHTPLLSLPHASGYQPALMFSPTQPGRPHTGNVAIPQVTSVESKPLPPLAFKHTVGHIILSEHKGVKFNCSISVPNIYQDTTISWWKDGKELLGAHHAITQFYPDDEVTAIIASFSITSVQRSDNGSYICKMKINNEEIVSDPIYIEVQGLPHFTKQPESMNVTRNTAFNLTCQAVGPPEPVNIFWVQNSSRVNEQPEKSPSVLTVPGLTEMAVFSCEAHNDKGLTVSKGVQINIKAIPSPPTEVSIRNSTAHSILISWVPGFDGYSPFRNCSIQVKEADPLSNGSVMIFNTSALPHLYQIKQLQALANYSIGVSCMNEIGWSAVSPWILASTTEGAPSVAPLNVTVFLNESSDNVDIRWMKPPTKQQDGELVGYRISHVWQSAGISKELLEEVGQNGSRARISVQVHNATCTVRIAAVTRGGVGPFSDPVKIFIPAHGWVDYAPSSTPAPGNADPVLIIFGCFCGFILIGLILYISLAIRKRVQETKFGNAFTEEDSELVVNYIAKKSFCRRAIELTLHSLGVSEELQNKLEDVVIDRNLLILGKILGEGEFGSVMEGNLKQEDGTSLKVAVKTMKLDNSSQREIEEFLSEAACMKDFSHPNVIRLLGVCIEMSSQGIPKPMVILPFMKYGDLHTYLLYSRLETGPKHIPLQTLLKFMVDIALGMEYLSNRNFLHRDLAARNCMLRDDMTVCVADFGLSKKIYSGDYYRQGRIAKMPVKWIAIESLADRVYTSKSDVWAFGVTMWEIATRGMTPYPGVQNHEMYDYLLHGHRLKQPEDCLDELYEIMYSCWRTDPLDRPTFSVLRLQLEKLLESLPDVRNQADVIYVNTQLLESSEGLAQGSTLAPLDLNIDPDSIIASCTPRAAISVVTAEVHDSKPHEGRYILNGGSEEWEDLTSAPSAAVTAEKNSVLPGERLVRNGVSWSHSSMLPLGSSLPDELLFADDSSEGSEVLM
Cyclin-dependent kinase 5 (Homo sapiens), sequence (Q00535 whole entry, looked up): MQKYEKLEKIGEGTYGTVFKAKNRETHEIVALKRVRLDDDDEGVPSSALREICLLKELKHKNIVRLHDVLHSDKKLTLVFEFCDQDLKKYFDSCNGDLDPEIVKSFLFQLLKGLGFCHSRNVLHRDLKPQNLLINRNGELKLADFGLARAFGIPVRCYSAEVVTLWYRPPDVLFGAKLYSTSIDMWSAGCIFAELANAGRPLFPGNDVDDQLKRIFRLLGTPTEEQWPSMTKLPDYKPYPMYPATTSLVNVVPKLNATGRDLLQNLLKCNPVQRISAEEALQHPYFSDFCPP
Proto-oncogene tyrosine-protein kinase receptor Ret (Homo sapiens), P07949 [M918T], sequence (P07949 whole entry M918T): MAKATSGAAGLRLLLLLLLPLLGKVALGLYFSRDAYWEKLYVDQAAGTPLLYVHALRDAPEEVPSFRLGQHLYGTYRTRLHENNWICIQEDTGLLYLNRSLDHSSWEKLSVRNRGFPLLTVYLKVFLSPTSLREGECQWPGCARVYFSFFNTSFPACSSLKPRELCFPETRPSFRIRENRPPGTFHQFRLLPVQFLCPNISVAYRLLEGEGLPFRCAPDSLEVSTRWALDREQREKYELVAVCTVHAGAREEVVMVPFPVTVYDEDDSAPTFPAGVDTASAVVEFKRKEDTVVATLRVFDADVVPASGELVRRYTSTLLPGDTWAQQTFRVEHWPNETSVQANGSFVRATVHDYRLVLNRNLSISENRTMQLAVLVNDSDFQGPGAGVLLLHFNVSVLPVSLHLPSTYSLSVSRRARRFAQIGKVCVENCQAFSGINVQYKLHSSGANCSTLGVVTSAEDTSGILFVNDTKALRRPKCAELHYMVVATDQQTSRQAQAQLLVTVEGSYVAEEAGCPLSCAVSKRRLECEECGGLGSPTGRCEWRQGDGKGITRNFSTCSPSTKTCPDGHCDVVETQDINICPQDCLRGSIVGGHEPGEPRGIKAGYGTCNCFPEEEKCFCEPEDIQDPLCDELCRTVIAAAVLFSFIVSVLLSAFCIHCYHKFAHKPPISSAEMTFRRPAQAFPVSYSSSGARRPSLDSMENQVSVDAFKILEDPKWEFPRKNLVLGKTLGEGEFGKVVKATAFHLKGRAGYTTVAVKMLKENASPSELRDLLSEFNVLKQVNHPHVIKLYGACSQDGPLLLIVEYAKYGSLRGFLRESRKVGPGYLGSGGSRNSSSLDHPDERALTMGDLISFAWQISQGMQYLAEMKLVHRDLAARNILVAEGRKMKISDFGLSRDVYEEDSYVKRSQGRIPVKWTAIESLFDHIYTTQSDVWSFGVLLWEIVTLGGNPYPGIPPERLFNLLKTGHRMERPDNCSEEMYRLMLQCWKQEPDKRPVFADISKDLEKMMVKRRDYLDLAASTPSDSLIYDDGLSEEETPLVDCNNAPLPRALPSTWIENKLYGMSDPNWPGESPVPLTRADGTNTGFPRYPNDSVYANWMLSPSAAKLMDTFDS
Mitogen-activated protein kinase kinase kinase 14 (Homo sapiens), sequence (Q99558 whole entry, looked up): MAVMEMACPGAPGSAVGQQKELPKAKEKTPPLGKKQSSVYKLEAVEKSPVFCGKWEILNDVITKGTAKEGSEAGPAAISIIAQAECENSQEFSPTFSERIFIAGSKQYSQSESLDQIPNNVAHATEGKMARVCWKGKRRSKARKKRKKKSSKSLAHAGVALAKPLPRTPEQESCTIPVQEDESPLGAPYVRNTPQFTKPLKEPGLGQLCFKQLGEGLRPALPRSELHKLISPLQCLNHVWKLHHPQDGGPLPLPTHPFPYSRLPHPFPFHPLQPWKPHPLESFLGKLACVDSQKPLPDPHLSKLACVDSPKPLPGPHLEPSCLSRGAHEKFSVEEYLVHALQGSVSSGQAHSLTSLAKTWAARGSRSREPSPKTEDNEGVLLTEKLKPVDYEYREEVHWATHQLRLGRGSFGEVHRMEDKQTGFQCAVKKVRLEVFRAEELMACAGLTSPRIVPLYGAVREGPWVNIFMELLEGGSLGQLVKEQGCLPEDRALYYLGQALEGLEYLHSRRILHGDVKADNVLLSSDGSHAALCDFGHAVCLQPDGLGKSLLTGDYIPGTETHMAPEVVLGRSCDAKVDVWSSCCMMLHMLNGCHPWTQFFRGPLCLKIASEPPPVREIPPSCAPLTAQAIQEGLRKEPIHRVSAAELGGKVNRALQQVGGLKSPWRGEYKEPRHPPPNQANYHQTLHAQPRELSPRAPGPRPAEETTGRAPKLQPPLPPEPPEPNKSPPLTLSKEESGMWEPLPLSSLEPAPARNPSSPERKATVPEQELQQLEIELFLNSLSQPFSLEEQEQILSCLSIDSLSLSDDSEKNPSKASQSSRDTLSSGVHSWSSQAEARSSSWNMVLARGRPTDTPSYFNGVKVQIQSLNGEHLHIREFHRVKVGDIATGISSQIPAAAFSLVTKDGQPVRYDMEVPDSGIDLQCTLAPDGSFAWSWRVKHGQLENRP
RAC-beta serine/threonine-protein kinase (Homo sapiens), sequence (P31751 whole entry): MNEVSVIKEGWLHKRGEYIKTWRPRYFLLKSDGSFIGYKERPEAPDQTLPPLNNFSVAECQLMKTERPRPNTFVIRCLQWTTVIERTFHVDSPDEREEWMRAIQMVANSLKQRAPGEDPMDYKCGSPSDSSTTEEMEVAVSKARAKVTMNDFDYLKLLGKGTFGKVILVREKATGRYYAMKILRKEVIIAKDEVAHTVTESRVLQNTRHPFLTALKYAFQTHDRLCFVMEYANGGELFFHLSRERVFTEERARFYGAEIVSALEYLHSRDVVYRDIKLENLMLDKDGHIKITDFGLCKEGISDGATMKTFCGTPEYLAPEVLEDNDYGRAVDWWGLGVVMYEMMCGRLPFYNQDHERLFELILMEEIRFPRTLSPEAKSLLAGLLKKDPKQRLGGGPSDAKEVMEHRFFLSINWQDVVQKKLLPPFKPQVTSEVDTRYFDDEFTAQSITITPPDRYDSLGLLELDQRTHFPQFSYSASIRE

SMILES | residual activity [1] [%] | residual activity [2] [%] | residual activity [3] [%] | residual activity [4] [%] | residual activity [5] [%] | residual activity [6] [%] | residual activity [7] [%] | residual activity [8] [%] | residual activity [9] [%] | residual activity [10] [%] | residual activity [11] [%] | residual activity [12] [%] | residual activity [13] [%] | residual activity [14] [%] | residual activity [15] [%] | residual activity [16] [%] | residual activity [17] [%] | residual activity [18] [%] | % Inhibition of Control Agonist Response (Mean n=2) [19] [%] | % of Control Agonist Response (Mean n=2) [19] [%] | other results
O=C(N1CCS(=O)(=O)CC1)N1C[C@H](c2ccc(OC(F)(F)F)cc2)C[C@H](c2nc(C3CC3)no2)C1 [BAY-386] | 97 | 93 | 98 | 100 | 100 | 100 | 92 | 100 | 100 | 83 | 100 | 100 | 100 | 100 | 71 | 100 | 90 | 100 | 57 | 12.8 | residual activity [20]: 87%; % Inhibition of Control Agonist Response (Mean n=2) [21]: -13.1%; % of Control Agonist Response (Mean n=2) [21]: 2.5%; residual activity [22]: 79%; residual activity [23]: 100%; residual activity [24]: 97%; inhibition [25]: 0.01%; residual activity [26]: 100%; residual activity [27]: 100%; residual activity [28]: 100%; residual activity [29]: 100%; residual activity [30]: 100%; residual activity [31]: 92%; residual activity [32]: 100%
Cc1noc([C@H]2C[C@@H](c3ccc(C(F)(F)F)cc3)CN(C(=O)N3CCS(=O)(=O)C3)C2)n1 [BAY-448] | 100 | 89 | 100 | 100 | 100 | 84 | 100 | 100 | 89 | 100 | 100 | 100 | 100 | 100 | 100 | 100 | 96 | 100 | 10.2 | 1.2 | residual activity [20]: 91%; % Inhibition of Control Agonist Response (Mean n=2) [21]: 12.2%; % of Control Agonist Response (Mean n=2) [21]: 19.2%; residual activity [22]: 100%; residual activity [23]: 100%; residual activity [24]: 72%; inhibition [25]: 5.46%; residual activity [26]: 93%; residual activity [27]: 100%; residual activity [28]: 100%; residual activity [29]: 100%; residual activity [30]: 100%; residual activity [31]: 85%; residual activity [32]: 100%
